Source: US20220127247A1, “N-(PYRIDIN-2-YL)PYRIDINE-SULFONAMIDE DERIVATIVES AND THEIR USE IN THE TREATMENT OF DISEASE” (NOVARTIS AG, priority 2019, published 2022)

Target: T1, delF508-CFTR (Homo sapiens, UniProt P13569, DEL508-508)
T1 construct: expressed in transfected cells
Assay: Measurement of delF508-CFTR-HRP surface expression in CFBE41o- cells
Format: cell-based
Conditions: for EC50: HRP-tagged delF508-CFTR in CFBE41o- cells, 24 h with compound, luminescence, 10-point curve, top 10 μM; for Emax: efficacy relative to reference compound 3-(6-(1-(2,2-difluorobenzo[d][1,3]dioxol-5-yl)cyclopropane-1-carboxamido)-3-methylpyridin-2-yl)benzoic acid, CFBE41o- cells, 24 h, read-out: DelF508-CFTR-HRP Amax %
Text: Measurement of delF508-CFTR-HRP Surface Expression in CFBE41o-Cells
This assay quantifies the cell surface expressions of the mutant CFTR channel using an extracellular HRP tag.
A cellular assay was developed to measure surface expression of horseradish peroxidase (HRP) tagged delF508-CFTR in the human bronchial epithelial immortalized CFBE41o-cell line (Phuan, P. W., et al, (2014) Molecular Pharmacology 86:42-51). Specifically, the HRP sequence was inserted into the fourth extracellular loop of delF508-CFTR and stably expressed in CFBE41o-cells. Cells were seeded in 384 well plate at a density of 5000 cells/well and incubated at 37° C. for 12 to 24 hours in medium (Gibco MEM #11095, 10% FBS, 10 mM HEPES, […], 200 μg/mL G418, 3 μg/mL Puromycin). The delF508-CFTR-HRP expression was induced with 500 ng/mL doxycycline (Sigma D-9891, dissolved in H2O and sterile filtered) in medium and the cells were incubated at 37° C. for 48 h. Old medium was removed and fresh medium was added containing 500 ng/mL doxycycline and unknown test compound at required test concentration in DMSO, not exceeding 0.5% final DMSO concentration. The highest concentration tested was 10 μM with a 10-point concentration response curve using a 3-fold dilution. After addition of compounds, the cells were incubated for 24 h at 37° C. On the final day, cells were washed four times in PBS containing 1 mM MgCl2 and 0.1 mM CaCl2. HRP-Substrate (SuperSignal ELISA Pico, Fisher #37069) 20 μl/well was added and the luminescence signal was determined (Viewlux, Perkin Elmer). Light was emitted upon addition of exogenous HRP-Substrate only when delF508-CFTR-HRP reached the cell surface and the HRP tag was accessible to the HRP-Substrate (note: HRP-Substrate cannot cross the lipid bilayer to reach delF508-CFTR-HRP misfolded within the cell).
The median activity for the lowest concentration of the compounds on each assay plate was calculated and this value was used to normalize the signal for each well on the respective plate. Three replicates at each concentrations for every compound were run to determine one EC50. The median value was determined and used to calculate compound activities as described below. Effective half maximal values (EC50) were calculated for each compound by performing logistic regression on measured dose-response data points using the equation: […]
where “Y” is the observed activity, “Bottom” is the lowest observed value, “Top” is the highest observed value, and the “Hill coefficient” gives the largest absolute value of the slope. The curve fitting is carried out by a curve fitting program implemented at GNF using Matlab (Mathworks).
The dose response curves also were used to calculate Fold Change (FC) using the equation: […]
Compound efficacy relative to the reference compound 3-(6-(1-(2,2-difluorobenzo[d][1,3]dioxol-5-yl)cyclopropane-1-carboxamido)-3-methylpyridin-2-yl)benzoic acid was determined using the following formula: […]

T1 sequence (P13569 with tags, fused parts or gaps DEL508-508): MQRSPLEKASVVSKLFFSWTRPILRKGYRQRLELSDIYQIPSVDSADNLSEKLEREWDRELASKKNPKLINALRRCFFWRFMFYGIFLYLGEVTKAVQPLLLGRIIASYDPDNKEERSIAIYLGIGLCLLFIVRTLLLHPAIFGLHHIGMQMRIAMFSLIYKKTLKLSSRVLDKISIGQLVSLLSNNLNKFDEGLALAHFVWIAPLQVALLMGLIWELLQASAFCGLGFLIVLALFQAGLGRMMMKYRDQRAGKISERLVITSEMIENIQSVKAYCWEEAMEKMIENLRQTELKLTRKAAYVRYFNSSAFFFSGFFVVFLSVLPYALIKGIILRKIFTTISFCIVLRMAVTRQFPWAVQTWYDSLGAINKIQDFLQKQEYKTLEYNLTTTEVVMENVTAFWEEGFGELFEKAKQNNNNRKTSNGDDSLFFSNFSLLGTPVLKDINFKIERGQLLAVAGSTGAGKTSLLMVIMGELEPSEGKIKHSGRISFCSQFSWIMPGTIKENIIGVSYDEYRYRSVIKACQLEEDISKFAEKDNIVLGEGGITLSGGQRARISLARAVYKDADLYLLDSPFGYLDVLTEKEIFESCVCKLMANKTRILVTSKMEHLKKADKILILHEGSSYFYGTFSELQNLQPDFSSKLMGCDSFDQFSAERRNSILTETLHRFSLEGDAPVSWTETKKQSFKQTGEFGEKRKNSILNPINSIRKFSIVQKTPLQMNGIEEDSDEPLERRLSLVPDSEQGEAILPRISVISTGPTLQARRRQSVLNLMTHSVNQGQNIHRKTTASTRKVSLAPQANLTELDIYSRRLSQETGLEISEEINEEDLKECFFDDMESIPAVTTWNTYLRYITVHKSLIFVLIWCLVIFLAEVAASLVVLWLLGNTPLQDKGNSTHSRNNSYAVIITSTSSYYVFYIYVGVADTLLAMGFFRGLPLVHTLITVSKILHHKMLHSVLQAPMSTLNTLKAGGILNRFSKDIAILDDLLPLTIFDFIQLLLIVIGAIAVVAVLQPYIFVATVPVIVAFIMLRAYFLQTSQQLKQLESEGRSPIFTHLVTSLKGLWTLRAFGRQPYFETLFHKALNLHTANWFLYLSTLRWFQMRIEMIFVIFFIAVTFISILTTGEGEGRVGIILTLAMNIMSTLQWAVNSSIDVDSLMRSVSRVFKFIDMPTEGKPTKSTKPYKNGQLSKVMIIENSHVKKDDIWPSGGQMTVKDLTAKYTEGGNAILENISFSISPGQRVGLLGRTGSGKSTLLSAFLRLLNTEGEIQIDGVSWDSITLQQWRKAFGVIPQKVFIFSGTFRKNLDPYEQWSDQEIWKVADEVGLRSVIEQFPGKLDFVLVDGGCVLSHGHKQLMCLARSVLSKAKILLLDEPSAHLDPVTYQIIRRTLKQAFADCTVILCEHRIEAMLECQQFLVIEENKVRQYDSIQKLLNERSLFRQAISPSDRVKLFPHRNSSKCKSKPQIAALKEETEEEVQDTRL

`O=C(O)CC1CCN(c2cccc(S(=O)(=O)Nc3ccc(C(F)(F)F)c(-c4ccccc4C4CCC4)n3)n2)CC1` [Compound 17, 2-(1-(6-(N-(6-(2-cyclobutylphenyl)-5-(trifluoromethyl)pyridin-2-yl)sulfamoyl)pyridin-2-yl)piperidin-4-yl)acetic Acid] gave an EC50 of 1460 nM and an Emax of 369%.
`CC1(C(=O)O)CCN(c2cccc(S(=O)(=O)Nc3ccc(C(F)(F)F)c(-c4ccccc4-c4ncccn4)n3)n2)CC1` [Compound 18, 4-methyl-1-(6-(N-(6-(2-(pyrimidin-2-yl)phenyl)-5-(trifluoromethyl)pyridin-2-yl)sulfamoyl)pyridin-2-yl)piperidine-4-carboxylic Acid] was tested, and the EC50 was 2390 nM and the Emax was 97%.
In the case of `CC1(C(=O)O)CCN(c2cccc(S(=O)(=O)Nc3ccc(Cl)c(-c4ccccc4-c4ccccc4)n3)n2)CC1` [Compound 19, 1-(6-(N-(6-([1,1′-biphenyl]-2-yl)-5-chloropyridin-2-yl)sulfamoyl)pyridin-2-yl)-4-methylpiperidine-4-carboxylic Acid], the EC50 is reported as 2240 nM and the Emax is reported as 378%.
In the case of `CC1(C(=O)O)CCN(c2cccc(S(=O)(=O)Nc3ccc(C(F)(F)F)c(-c4ccccc4-c4ccccc4)n3)n2)CC1` [Compound 20, 1-(6-(N-(6-([1,1′-biphenyl]-2-yl)-5-(trifluoromethyl)pyridin-2-yl)sulfamoyl)pyridin-2-yl)-4-methylpiperidine-4-carboxylic Acid], the EC50 is reported as 800 nM and the Emax is reported as 973%.
`COc1ccc(Cl)c(-c2nc(NS(=O)(=O)c3cccc(N4CCN(c5ccc(C(=O)O)cc5)CC4)n3)ccc2C(F)(F)F)c1` [Compound 21, 4-(4-(6-(N-(6-(2-chloro-5-methoxyphenyl)-5-(trifluoromethyl)pyridin-2-yl)sulfamoyl)pyridin-2-yl)piperazin-1-yl)benzoic Acid] was tested, and the EC50 was 2930 nM and the Emax was 361%.
With `CCc1ccccc1-c1nc(NS(=O)(=O)c2cccc(N3CCC(C)(CC(=O)O)CC3)n2)ccc1C(F)(F)F` [Compound 22, 2-(1-(6-(N-(6-(2-ethylphenyl)-5-(trifluoromethyl)pyridin-2-yl)sulfamoyl)pyridin-2-yl)-4-methylpiperidin-4-yl)acetic Acid] the EC50 was 1060 nM and the Emax was 485%.
With `CC1(CC(=O)O)CCN(c2cccc(S(=O)(=O)Nc3ccc(C(F)(F)F)c(-c4ccccc4-c4ccccc4)n3)n2)CC1` [Compound 23, 2-(1-(6-(N-(6-([1,1′-biphenyl]-2-yl)-5-(trifluoromethyl)pyridin-2-yl)sulfamoyl)pyridin-2-yl)-4-methylpiperidin-4-yl)acetic acid] the EC50 was 1260 nM.
Work on `CC1(CC(=O)O)CCN(c2cccc(S(=O)(=O)Nc3ccc(C(F)(F)F)c(-c4ccccc4C4CCC4)n3)n2)CC1` [Compound 24, 2-(1-(6-(N-(6-(2-cyclobutylphenyl)-5-(trifluoromethyl)pyridin-2-yl)sulfamoyl)pyridin-2-yl)-4-methylpiperidin-4-yl)acetic Acid] yielded an EC50 of 1310 nM and an Emax of 909%.
Compound `CC(C)c1ccccc1-c1nc(NS(=O)(=O)c2cccc(N3CCC(C)(CC(=O)O)CC3)n2)ccc1C(F)(F)F` [Compound 25, 2-(1-(6-(N-(6-(2-isopropylphenyl)-5-(trifluoromethyl)pyridin-2-yl)sulfamoyl)pyridin-2-yl)-4-methylpiperidin-4-yl)acetic Acid] has an EC50 of 1000 nM and an Emax of 780%.
In the case of `CC1(CC(=O)O)CCN(c2cccc(S(=O)(=O)Nc3ccc(C(F)(F)F)c(-c4ccccc4C(C)(C)C)n3)n2)CC1` [Compound 26, 2-(1-(6-(N-(6-(2-(tert-butyl)phenyl)-5-(trifluoromethyl)pyridin-2-yl)sulfamoyl)pyridin-2-yl)-4-methylpiperidin-4-yl)acetic Acid], the EC50 is reported as 830 nM and the Emax is reported as 829%.
Work on `CC1(C(=O)O)CCN(c2cccc(S(=O)(=O)Nc3ccc(C(F)(F)F)c(-c4ccccc4-c4ccncc4)n3)n2)CC1` [Compound 27, 4-methyl-1-(6-(N-(6-(2-(pyridin-4-yl)phenyl)-5-(trifluoromethyl)pyridin-2-yl)sulfamoyl)pyridin-2-yl)piperidine-4-carboxylic Acid] yielded an EC50 of 2070 nM and an Emax of 189%.
In the case of `CC1(C(=O)O)CCN(c2cccc(S(=O)(=O)Nc3ccc(C(F)(F)F)c(-c4ccccc4Oc4ccccc4)n3)n2)CC1` [Compound 28, 4-methyl-1-(6-(N-(6-(2-phenoxyphenyl)-5-(trifluoromethyl)pyridin-2-yl)sulfamoyl)pyridin-2-yl)piperidine-4-carboxylic Acid], the EC50 is reported as 1450 nM and the Emax is reported as 442%.
`CC1(C(=O)O)CCCN(c2cccc(S(=O)(=O)Nc3ccc(Cl)c(-c4ccccc4-c4ccccc4)n3)n2)C1` (stereo not shown) [Compound 29, 1-(6-(N-(6-([1,1′-biphenyl]-2-yl)-5-chloropyridin-2-yl)sulfamoyl)pyridin-2-yl)-3-methylpiperidine-3-carboxylic Acid] was tested, and the EC50 was 1300 nM and the Emax was 969%.
`CC(C)c1ccncc1-c1nc(NS(=O)(=O)c2cccc(N3CCCC(C)(C(=O)O)C3)n2)ccc1C(F)(F)F` (stereo not shown) [Compound 30, 1-(6-(N-(4′-isopropyl-3-(trifluoromethyl)-[2,3′-bipyridin]-6-yl)sulfamoyl)pyridin-2-yl)-3-methylpiperidine-3-carboxylic Acid] gave an EC50 of 2220 nM and an Emax of 303%.
For `CC(C)c1ccccc1-c1nc(NS(=O)(=O)c2cccc(N3CCC(OCC(=O)O)CC3)n2)ccc1C(F)(F)F` [Compound 31, 2-((1-(6-(N-(6-(2-isopropylphenyl)-5-(trifluoromethyl)pyridin-2-yl)sulfamoyl)pyridin-2-yl)piperidin-4-yl)nxy)acetic Acid], the EC50 was 2140 nM and the Emax was 443%.
Compound `Cc1ccccc1-c1nc(NS(=O)(=O)c2cccc(N3CCC(CC(=O)O)C3)n2)ccc1C(F)(F)F` (stereo not shown) [Compound 32, 2-(1-(6-(N-(6-(o-tolyl)-5-(trifluoromethyl)pyridin-2-yl)sulfamoyl)pyridin-2-yl)pyrrolidin-3-yl)acetic Acid] has an EC50 of 1800 nM and an Emax of 372%.
Work on `O=C(O)CC1CCN(c2cccc(S(=O)(=O)Nc3ccc(C(F)(F)F)c(-c4ccccc4C4CC4)n3)n2)C1` (stereo not shown) [Compound 33, 2-(1-(6-(N-(6-(2-cyclopropylphenyl)-5-(trifluoromethyl)pyridin-2-yl)sulfamoyl)pyridin-2-yl)pyrrolidin-3-yl)acetic Acid] yielded an EC50 of 1280 nM and an Emax of 320%.
`Cc1ccccc1-c1nc(NS(=O)(=O)c2cccc(N(C)CCC(=O)O)n2)ccc1C(F)(F)F` [Compound 34, 3-(methyl(6-(N-(6-(o-tolyl)-5-(trifluoromethyl)pyridin-2-yl)sulfamoyl)pyridin-2-yl)amino)propanoic Acid] was tested, and the EC50 was 2580 nM and the Emax was 785%.
Compound `Cc1ccccc1-c1nc(NS(=O)(=O)c2cccc(NCCC(=O)O)n2)ccc1C(F)(F)F` [Compound 35, 3-((6-(N-(6-(o-tolyl)-5-(trifluoromethyl)pyridin-2-yl)sulfamoyl)pyridin-2-yl)amino)propanoic acid] has an EC50 of 2600 nM and an Emax of 209%.
Compound `Cc1ccccc1-c1nc(NS(=O)(=O)c2cccc(NCCCC(=O)O)n2)ccc1C(F)(F)F` [Compound 36, 4-((6-(N-(6-(o-tolyl)-5-(trifluoromethyl)pyridin-2-yl)sulfamoyl)pyridin-2-yl)amino)butanoic Acid] has an EC50 of 2960 nM and an Emax of 222%.
Compound `Cc1ccccc1-c1nc(NS(=O)(=O)c2cccc(N(C)CCCC(=O)O)n2)ccc1C(F)(F)F` [Compound 37, 4-(methyl(6-(N-(6-(o-tolyl)-5-(trifluoromethyl)pyridin-2-yl)sulfamoyl)pyridin-2-yl)amino)butanoic Acid] has an EC50 of 2050 nM and an Emax of 982%.
In the case of `CN(CCC(=O)O)c1cccc(S(=O)(=O)Nc2ccc(C(F)(F)F)c(-c3ccccc3C3CC3)n2)n1` [Compound 38, 3-((6-(N-(6-(2-cyclopropylphenyl)-5-(trifluoromethyl)pyridin-2-yl)sulfamoyl)pyridin-2-yl)(methyl)amino)propanoic Acid], the EC50 is reported as 1700 nM and the Emax is reported as 742%.
